This passage reports EC50 results from patent US9963452B2, “Methods, compounds, and compositions for inhibition of ROS” (AUGUSTA PHARMACEUTICALS INC., priority 2013, dated 2018).

A word on the EC50: it is the concentration needed to bring the measured effect to its halfway point. Lower therefore signals a more potent agent.

The subject of this test is glioblastoma cell lines. The test is described as follows: Glioblastoma growth inhibition by Xalkori (cell-based assay, FIG. 3). Conditions: depending on the cell line (FIG. 3). On the procedure:
Five tumor-derived cell lines were treated with the ROS inhibitor compounds and cell survival was monitored to determine the cancer prohibition effects of the compounds. The cell lines included HeLa, a cervical cancer cell line, and four glioblastoma cell lines U138, U87, LN18, and U118. The basic protocol for the in-vitro cell survival assay is the same for all five cell lines. In particular, the cells were seeded in 96-well plates at 2-5×10^3 cells/well (cell line dependent) in culture medium. The cells were grown for 2 days before the compounds were dissolved in DMSO and added to final concentrations of 100 uM, 10 uM, or 1 uM (DMSO final concentration 0.5%). The cell culture was then assayed one day after the addition of the compounds. The assay used Alamar blue as a redox-sensitive dye that interrogates mitochondrial fitness of cells, and these assays provided a readout for cell proliferation and viability. The raw values were normalized to an average of several vehicle control wells and are presented as percent decrease in proliferation/viability, which is converted to half maximal effective concentration (EC50) values.
FIG. 3: Potency, selectivity and growth inhibitory effects of Xalkori in in vitro kinase and cell-based assays. […] U138 and U118 have been documented to express aberrant ROS (FIG-ROS fusion). […]

Compound `C[C@@H](Oc1cc(-c2cnn(C3CCNCC3)c2)cnc1N)c1c(Cl)ccc(F)c1Cl` [Crizotinib] returned a 50% effective concentration (EC50) of 12 to 20 nM.
